Like-named read-outs stand apart in the source and are kept apart here.
Columns and labels:
in vitro = test: in vitro
Protocol: (§1) Caco-2, MDCK and MDCK-MRP2 cells were donated by Prof. Yan Xie and Yueming Ma from Shanghai University of Traditional Chinese Medicine. The cells were grown in culture dishes (Corning® Costar, Cambridge, MA, USA) using DMEM supplemented with 10% FBS, 1% NEAA and 1% penicillin-streptomycin solution. The cells were cultured in 5% CO2 and […] with 90% relative humidity at 37°C. The medium was replaced every other day during incubation. The cells were passaged every 3–4 days between 70 and 80% confluence at a 1:5 split ratio using 0.25% trypsin-EDTA. For the transport experiments, the cells from passages between 30 and 45 were seeded at 1 × 10^5 cells/cm^2 onto permeable polycarbonate inserts (0.45 μm pore size, seeding surface of 0.6 cm^2, Millipore, MA, USA) in 24-well plastic plates. The media in the culture plates were changed every other day for the first week after seeding and were replaced daily afterward. […] The cells were used for the transport experiments 21–28 (Caco-2) or 5–7 (MDCK and MDCK-MRP2) days after seeding, and only monolayers with a TEER-value above 420 Ω cm^2 were used during the studies.
(§2) The apical (AP) and basolateral (BL) sides are typical of polarized Caco-2, MDCK and MDCK-MRP2 epithelial cells. Before the experiments, the polarized cell monolayers were washed twice with warm HBSS solution and subsequently preincubated (37°C, 30 min). Afterward, HBSS solution on both sides of the cell monolayers was removed using a mini desktop vacuum pump. […] The final DMSO concentration in the HBSS or drug mixture was below 0.5%. The monolayers were incubated at 37°C, and 100 μL samples were taken at 30, 60, 90, and 120 min from the acceptor compartment and immediately replaced with the same volume of prewarmed fresh blank HBSS. TEER measurements for assessing the membrane integrity took place before and after the experiments.
(§3) The apparent permeability coefficients (Papp) and ER were calculated as Equations (2) and (3): […]
(§4) where dQ/dt is the steady-state flux, A is the membrane surface area, and C0 is the initial drug concentration in the donor compartment. PappBA is the Papp-value measured in BL to AP direction and PappAB is the Papp-value measured in AP to BL direction. It indicated the involvement of an active transport process when the ER-value is above 1.5 (Hubatsch et al., [2007]).

[1] = test system: ATP (adenosine triphosphate); test: in vitro; conditions: human
Protocol: as §1, §2, §3, §4

OATs = test: in vitro; conditions: human, Caco-2, 2 μM, + Cimetidine 0.05 mM (OATs)
Protocol: as §1, §2, §3, §4

[2] = Cytotoxicity CCK-8 assay in Caco-2 cells; type: cell-based, human; conditions: human, Caco-2 cells, 12 h incubation, read-out: Cell viability
Protocol: (§5) In brief, the cells were seeded on 96-well plates at 1 × 10^5 cells/mL and cultured in 100 μL of culture medium at incubator for 24 h. […] After 12 h incubation, 10 μL of CCK-8 dye was added to each well, and cells were incubated for another 2 h. Cell viability (%) was calculated using the following Equation (1):
(§6) (1) Cell viability (%)=(ODsample−ODblank)/ (ODcontrol−ODblank) ×100%
(§7) ODsample refers to the absorbance of a well with treated cells and CCK-8. ODblank refers to the absorbance of a well with medium and CCK-8 but without cells. ODcontrol refers to the absorbance of a well with untreated cells and CCK-8. The absorbance at 450 nm was measured by a microplate reader (Biotek Instrument; Gene Co., Ltd., VT, USA), and the results are presented as mean ± SD from triplicate wells.

Caco-2 cells = test: Cytotoxicity CCK-8 assay in Caco-2 cells; type: cell-based, human; conditions: Caco-2, CCK-8
Protocol: as §5, §6, §7

[3] = rats, oral total alkaloid extracts from P. harmala 140 mg/kg; ref Zhang, 2013; Shi et al., 2014; cited from earlier work
[4] = dog, MDCK, PappAB, initial concentration 1 μM
[5] = dog, MDCK, PappAB, initial concentration 2 μM
[6] = dog, MDCK, PappAB, initial concentration 5 μM
[7] = dog, MDCK, PappBA, initial concentration 1 μM
[8] = dog, MDCK, PappBA, initial concentration 2 μM
[9] = dog, MDCK, PappBA, initial concentration 5 μM
[10] = dog, MDCK, pH 5.5, PappAB, 2 μM, pH 5.5
[11] = dog, MDCK, pH 5.5, PappBA, 2 μM, pH 5.5
[12] = human, Caco-2, PappAB, Caco-2, initial concentration 1 μM
[13] = human, Caco-2, PappAB, Caco-2, initial concentration 5 μM
[14] = human, Caco-2, PappBA, Caco-2, 2 μM, 4°C
[15] = human, Caco-2, PappBA, Caco-2, initial concentration 1 μM
[16] = human, Caco-2, PappBA, Caco-2, initial concentration 2 μM
[17] = human, Caco-2, PappBA, Caco-2, initial concentration 5 μM
[18] = human, Caco-2, pH 5.5, PappAB, Caco-2, 2 μM, pH 5.5
[19] = human, Caco-2, pH 5.5, PappBA, Caco-2, 2 μM, pH 5.5

Row | Compound | Papp A→B (in vitro; [4]) | Papp A→B (in vitro; [5]) | Papp A→B (in vitro; [6]) | Papp B→A (in vitro; [7]) | Papp B→A (in vitro; [8]) | Papp B→A (in vitro; [9]) | Papp A→B (in vitro; [10]) | Papp B→A (in vitro; [11]) | Papp A→B (in vitro; [12]) | Papp A→B (in vitro; [13]) | Papp B→A (in vitro; [14]) | Papp B→A (in vitro; [15]) | Papp B→A (in vitro; [16]) | Papp B→A (in vitro; [17]) | Papp A→B (in vitro; [18]) | Papp B→A (in vitro; [19]) | concentration without toxicity or decreased cell viability (Caco-2 cells) | drug concentration producing notable toxicity (Caco-2 cells) | F-value (absolute bioavailability) [3] | other results
1 | COc1ccc2c3c([nH]c2c1)C(C)=NCC3 [Harmaline] | 15.8 ± 1.76 ×10⁻⁶ cm/s | 20.4 ± 1.82 ×10⁻⁶ cm/s | 21.2 ± 1.32 ×10⁻⁶ cm/s | 19.5 ± 2.25 ×10⁻⁶ cm/s | 21 ± 2.11 ×10⁻⁶ cm/s | 24.5 ± 2.54 ×10⁻⁶ cm/s | 13 ± 2.54 ×10⁻⁶ cm/s | 15.4 ± 0.91 ×10⁻⁶ cm/s | 27.4 ± 1.44 ×10⁻⁶ cm/s | 30.1 ± 3.01 ×10⁻⁶ cm/s | 8.71 ± 1.83 ×10⁻⁶ cm/s | 25.6 ± 1.95 ×10⁻⁶ cm/s | 26.4 ± 0.49 ×10⁻⁶ cm/s | 31 ± 1.4 ×10⁻⁶ cm/s | 7.6 ± 0.74 ×10⁻⁶ cm/s | 6.72 ± 0.76 ×10⁻⁶ cm/s | up to 25 μM | higher than 100 μM | 63.22% | efflux ratio (in vitro; dog, MDCK, ER, 2 μM, 4°C): 1.23; efflux ratio (in vitro; dog, MDCK, ER, 2 μM, with EDTA 5 mM): 0.9; efflux ratio (in vitro; dog, MDCK, ER, initial concentration 1 μM): 1.23; efflux ratio (in vitro; dog, MDCK, ER, initial concentration 2 μM): 1.03; efflux ratio (in vitro; dog, MDCK, ER, initial concentration 5 μM): 1.16; efflux ratio (in vitro; dog, MDCK, pH 5.5, ER, 2 μM, pH 5.5): 1.18; efflux ratio (in vitro; dog, MDCK, pH 7.4, ER, 2 μM, Control (pH 7.4, 37°C, without EDTA)): 1.03; efflux ratio (in vitro; human, Caco-2, ER, Caco-2, 2 μM, 4°C): 1.15; efflux ratio (in vitro; human, Caco-2, ER, Caco-2, 2 μM, Control (no inhibitor or substrate)): 0.95; efflux ratio (in vitro; human, Caco-2, ER, Caco-2, 2 μM, with EDTA 5 mM): 1.12; efflux ratio (in vitro; human, Caco-2, ER, Caco-2, initial concentration 1 μM): 0.93; efflux ratio (in vitro; human, Caco-2, ER, Caco-2, initial concentration 2 μM): 0.95; efflux ratio (in vitro; human, Caco-2, ER, Caco-2, initial concentration 5 μM): 1.03; efflux ratio (in vitro; human, Caco-2, pH 5.5, ER, Caco-2, 2 μM, pH 5.5): 0.88; efflux ratio (in vitro; human, Caco-2, pH 7.4, ER, Caco-2, 2 μM, Control (pH 7.4, 37°C, without EDTA)): 0.95; efflux ratio ([1]; Caco-2, ER, Caco-2, 2 μM, + NaN3 10 mM (ATP)): 1.15; efflux ratio (OATs; Caco-2, ER): 0.97; viability at 12 h ([2]; Caco-2, up to 25 μM): > 90%
2 | COc1ccc2c(c1)[nH]c1c(C)nccc12 [Harmine] | 3.7 ± 0.14 ×10⁻⁶ cm/s | 4.6 ± 0.25 ×10⁻⁶ cm/s | 7.11 ± 0.89 ×10⁻⁶ cm/s | 5.81 ± 0.19 ×10⁻⁶ cm/s | 7.32 ± 0.19 ×10⁻⁶ cm/s | 11.6 ± 0.15 ×10⁻⁶ cm/s | 2.24 ± 0.29 ×10⁻⁶ cm/s | 3.42 ± 0.48 ×10⁻⁶ cm/s | 15.1 ± 0.73 ×10⁻⁶ cm/s | 31.1 ± 1.42 ×10⁻⁶ cm/s | 2.41 ± 0.85 ×10⁻⁶ cm/s | 22.8 ± 0.25 ×10⁻⁶ cm/s | 29.3 ± 1.21 ×10⁻⁶ cm/s | 48.3 ± 2.81 ×10⁻⁶ cm/s | 5.27 ± 0.29 ×10⁻⁶ cm/s | 4.17 ± 1.03 ×10⁻⁶ cm/s | up to 5 μM | > 25 µM | 4.96% | Papp A→B (in vitro; human, Caco-2, PappAB, Caco-2, 2 μM, 4°C): 1.58 ± 0.57 ×10⁻⁶ cm/s; Papp A→B (in vitro; human, Caco-2, PappAB, Caco-2, initial concentration 2 μM): 18.8 ± 1.26 ×10⁻⁶ cm/s; Papp A→B ([1]; Caco-2, PappAB): 14.1 ± 0.39 ×10⁻⁶ cm/s; Papp B→A (OATs; Caco-2, PappBA): 27.6 ± 1.54 ×10⁻⁶ cm/s; viability at 12 h ([2]; Caco-2, up to 5 μM): > 90%
